Test results from the CheMixHub drug solubility set.

Test: xn = mol fraction of the nth substance listed, in the solute-free solvent

O=C(O)C1CSCN1 (stereo not drawn) + O + CC#N
solubility (g/100 g solution)
Conditions | x2 = 0.1 | x2 = 0.2 | x2 = 0.3 | x2 = 0.4 | x2 = 0.5 | x2 = 0.6 | x2 = 0.7 | x2 = 0.8 | x2 = 0.9
283.15 K | 0.0141 | 0.0241 | 0.0323 | 0.084 | 0.183 | 0.365 | 0.573 | 0.965 | 1.4
293.15 K | 0.0189 | 0.0303 | 0.0491 | 0.106 | 0.242 | 0.433 | 0.729 | 1.24 | 1.89
303.15 K | 0.0244 | 0.0416 | 0.0643 | 0.129 | 0.312 | 0.533 | 0.901 | 1.58 | 2.4
313.15 K | 0.0292 | 0.0548 | 0.0787 | 0.159 | 0.392 | 0.679 | 1.17 | 2.04 | 3.06
323.15 K | 0.0343 | 0.0734 | 0.0978 | 0.192 | 0.492 | 0.805 | 1.52 | 2.62 | 3.94

Nc1cncc(Cl)n1 + CC(O)CO + O
solubility (g/100 g solution)
Conditions | 278.15 K | 283.15 K | 288.15 K | 293.15 K | 298.15 K | 303.15 K | 308.15 K | 313.15 K | 318.15 K | 323.15 K
x2 = 0.02564 | – | – | – | – | – | – | – | – | – | 0.0333
x2 = 0.0559 | – | – | – | – | – | – | – | – | – | 0.0456
x2 = 0.09214 | 0.064 | 0.0784 | 0.093 | 0.112 | 0.133 | 0.158 | 0.185 | 0.216 | 0.25 | 0.292
x2 = 0.1364 | 0.0887 | 0.109 | 0.129 | 0.156 | 0.184 | 0.218 | 0.255 | 0.297 | 0.343 | 0.401
x2 = 0.1915 | 0.112 | 0.137 | 0.166 | 0.2 | 0.239 | 0.281 | 0.33 | 0.384 | 0.445 | 0.521
x2 = 0.2621 | 0.135 | 0.168 | 0.206 | 0.251 | 0.298 | 0.351 | 0.413 | 0.48 | 0.555 | 0.649
x2 = 0.3559 | 0.156 | 0.196 | 0.237 | 0.29 | 0.345 | 0.406 | 0.479 | 0.557 | 0.644 | 0.757
x2 = 0.4865 | 0.159 | 0.205 | 0.253 | 0.308 | 0.371 | 0.435 | 0.512 | 0.599 | 0.694 | 0.815
x2 = 0.6806 | 0.159 | 0.201 | 0.247 | 0.307 | 0.365 | 0.431 | 0.508 | 0.593 | 0.688 | 0.814

CC(=O)NC(CCC(N)=O)C(=O)O (stereo not drawn) + O + CO
solubility (g/100 g solution)
Conditions | 293.15 K | 298.15 K | 303.15 K | 308.15 K | 313.15 K | 318.15 K
x2 = 0.1998 | 1.22 | 1.48 | 1.76 | 2.06 | 2.62 | 3.27
x2 = 0.4906 | 2.54 | 2.73 | 3.45 | 4.16 | 5.01 | 5.92
x2 = 0.6921 | 3.1 | 3.54 | 4.77 | 5.99 | 7.07 | 8.56
x2 = 0.7712 | 3.1 | 3.37 | 4.17 | 4.97 | 6.05 | 7.41
x2 = 0.8999 | 3.14 | 3.34 | 4.37 | 5.12 | 5.77 | 7.05

CC(=O)NC(CCC(N)=O)C(=O)O (stereo not drawn) + O + CCO
solubility (g/100 g solution)
Conditions | 293.15 K | 298.15 K | 303.15 K | 308.15 K | 313.15 K | 318.15 K
x2 = 0.2647 | 0.629 | 0.869 | 0.998 | 1.29 | 1.49 | 1.75
x2 = 0.4475 | 1.45 | 1.76 | 2.23 | 2.56 | 2.78 | 3.17
x2 = 0.7641 | 3.01 | 3.62 | 4.93 | 6.04 | 7.27 | 8.61
x2 = 0.8293 | 2.93 | 3.69 | 4.49 | 5.32 | 6.47 | 7.52
x2 = 0.9284 | 3.11 | 3.48 | 4.31 | 5.04 | 6.17 | 7.23

O=C1CCc2ccc(OCCCCN3CCN(c4cccc(Cl)c4Cl)CC3)cc2N1 + CCC(C)=O + CCOC(C)=O
solubility (g/100 g solution)
Conditions | 278.15 K | 283.15 K | 288.15 K | 293.15 K | 298.15 K | 303.15 K | 308.15 K | 313.15 K | 318.15 K
x2 = 0.1 | 0.601 | 0.745 | 0.882 | 1.04 | 1.24 | 1.57 | 1.88 | 2.26 | 2.76
x2 = 0.2 | 0.641 | 0.794 | 0.953 | 1.12 | 1.37 | 1.74 | 2.08 | 2.45 | 2.98
x2 = 0.3 | 0.681 | 0.845 | 1.04 | 1.22 | 1.48 | 1.91 | 2.28 | 2.68 | 3.24
x2 = 0.4 | 0.73 | 0.907 | 1.14 | 1.32 | 1.61 | 2.06 | 2.48 | 2.92 | 3.53
x2 = 0.5 | 0.778 | 0.975 | 1.23 | 1.44 | 1.75 | 2.22 | 2.66 | 3.16 | 3.8
x2 = 0.6 | 0.825 | 1.05 | 1.32 | 1.57 | 1.89 | 2.39 | 2.86 | 3.4 | 4.12
x2 = 0.7 | 0.879 | 1.13 | 1.43 | 1.69 | 2.03 | 2.55 | 3.04 | 3.65 | 4.42
x2 = 0.8 | 0.948 | 1.22 | 1.53 | 1.83 | 2.18 | 2.72 | 3.25 | 3.87 | 4.75
x2 = 0.9 | 1.04 | 1.34 | 1.63 | 1.98 | 2.36 | 2.91 | 3.48 | 4.12 | 5.04

CCCCOc1ccc(C(=O)CCN2CCCCC2)cc1.Cl + CO + C1CCOC1
solubility (g/100 g solution)
Conditions | 278.15 K | 283.15 K | 288.15 K | 293.15 K | 298.15 K | 303.15 K | 308.15 K | 313.15 K | 318.15 K | 323.15 K
x2 = 0.1 | 3.9 | 4.4 | 4.97 | 5.64 | 6.4 | 7.23 | 8.14 | 9.22 | 10.4 | 11.6
x2 = 0.2 | 7.86 | 8.84 | 9.92 | 11.2 | 12.4 | 13.9 | 15.5 | 17.2 | 19.1 | 21.1
x2 = 0.3 | 12 | 13.4 | 14.9 | 16.6 | 18.4 | 20.5 | 22.6 | 24.9 | 27.4 | 30
x2 = 0.4 | 16.3 | 18.1 | 20.1 | 22.3 | 24.6 | 27 | 29.6 | 32.5 | 35.4 | 38.5
x2 = 0.5 | 20.8 | 23.1 | 25.4 | 28 | 30.6 | 33.5 | 36.5 | 39.6 | 42.8 | 46.2
x2 = 0.6 | 25.5 | 28.2 | 30.8 | 33.7 | 36.7 | 39.8 | 43 | 46.4 | 49.9 | 53.3
x2 = 0.7 | 30.6 | 33.5 | 36.5 | 39.6 | 42.9 | 46.2 | 49.6 | 53 | 56.5 | 59.9
x2 = 0.8 | 35.7 | 38.9 | 42 | 45.4 | 48.7 | 52.1 | 55.5 | 59 | 62.5 | 65.8
x2 = 0.9 | 41.3 | 44.6 | 48 | 51.3 | 54.7 | 58.1 | 61.5 | 64.9 | 68 | 71.3
